Results taken from patent publication US20260232767A1, “INTERLEUKIN-23 RECEPTOR ANTAGONIST PEPTIDES FOR USE IN THE TREATMENT OF PSORIASIS” (Janssen Pharmaceutica NV, priority 2023, published 2026).

Tested on: subjects with moderate-to-severe plaque psoriasis
Test: PASI response, Example 1 16-week dose-ranging study
Type: in vivo, human
Experimental: The Psoriasis Area and Severity Index (PASI) is a system used for assessing and grading the severity of psoriatic lesions and their response to therapy. In the PASI system, the body is divided into four regions: the head, trunk, upper extremities, and lower extremities. Each of these areas is assessed and scored separately for erythema, induration, and scaling, which are each rated on a scale of 0 to 4 and extent of involvement on a scale of 0 to 6. The PASI produces a numeric score (a “PASI score”) that can range from 0 to 72. A higher score indicates more severe disease.
This was a randomized, double-blind, placebo-controlled, dose-ranging, parallel group, multicenter, interventional study in subjects with moderate-to-severe plaque psoriasis. A target of 240 subjects were enrolled in this study with 40 subjects planned per intervention group.
Clinician-reported outcomes including Psoriasis Area and Severity Index (PASI), Body Surface Area (BSA), Investigator's Global Assessment (IGA), Nail Psoriasis Area and Severity Index (NAPSI), Fingernail Physician's Global Assessment (f-PGA), Static Physician's Global Assessment of Genitalia (s-PGA-G), Physician's Global Assessment of Hands and/or Feet (hf-PGA), and Scalp Specific Investigator Global Assessment (ss-IGA) were obtained at Week 0, 8, and 16. PASI and IGA were also obtained at Weeks 1, 2, 4, and 12, and at Week 20, four weeks after the administration of the tablets has stopped.
The primary efficacy endpoint was the proportion of participants achieving a PASI 75 response at Week 16, defined as at least a 75% reduction from baseline in PASI total score.
For the primary analysis, composite strategy (non-responder imputation) was applied to address intercurrent event #1 (Discontinuation of study intervention due to lack of efficacy or due to an AE of worsening of psoriasis) and #2 (initiation of a protocol-prohibited medication or therapy that could improve psoriasis); and treatment policy strategy (observed data) was applied to intercurrent event #3 (Discontinuation of study intervention due to other reasons). Participants with missing data after application of ICEs are also considered as non-responders.
In addition to the response analysis, pairwise comparisons of each treatment group versus the placebo group were performed for the primary endpoint of PASI 75 at Week 16. Pairwise comparisons were not adjusted for multiplicity. The Cochran-Mantel-Haenszel chi-square statistic stratified by baseline weight category (≤90 kg, >90 kg) at a 2-sided significance level of 0.05 was used (Table 2).

[1] = 100 mg BID, Week 16, trough plasma conc Q1 to <Q2
[2] = 100 mg BID, Week 16, trough plasma conc Q2 to <Q3
[3] = 100 mg BID, Week 16, trough plasma conc ≥Q3
[4] = 100 mg QD, Week 16, peak plasma conc. <Q1, N=2
[5] = 100 mg QD, Week 16, peak plasma conc. Q1 to <Q2, N=2
[6] = 100 mg QD, Week 16, peak plasma conc. Q2 to <Q3, N=2
[7] = 100 mg QD, Week 16, peak plasma conc. ≥Q3, N=2
[8] = 100 mg QD, Week 16, trough plasma conc <Q1
[9] = 100 mg QD, Week 16, trough plasma conc Q1 to <Q2
[10] = 100 mg QD, Week 16, trough plasma conc Q2 to <Q3
[11] = 100 mg QD, Week 16, trough plasma conc ≥Q3
[12] = Combined doses, Week 16, peak plasma conc. <Q1, N=10
[13] = Combined doses, Week 16, peak plasma conc. Q1 to <Q2, N=11
[14] = Combined doses, Week 16, peak plasma conc. Q2 to <Q3, N=10
[15] = Combined doses, Week 16, peak plasma conc. ≥Q3, N=11
[16] = Combined doses, Week 16, trough plasma conc <Q1
[17] = Combined doses, Week 16, trough plasma conc Q1 to <Q2

## CC(=O)NCCCC[C@@H]1NC(=O)[C@H](Cc2c[nH]c3c(C)cccc23)NC(=O)[C@H]([C@@H](C)O)NC(=O)[C@H](CC(N)=O)NC(=O)[C@@H](NC(C)=O)C(C)(C)SSC(C)(C)[C@@H](C(=O)N[C@@H](Cc2ccc(OCCN)cc2)C(=O)N[C@@H](Cc2ccc3ccccc3c2)C(=O)NC2(C(=O)N[C@@H](CCC(=O)O)C(=O)N[C@@H](CC(N)=O)C(=O)N[C@@H](Cc3cccnc3)C(=O)N(C)CC(N)=O)CCOCC2)NC1=O [IL-23 receptor antagonist peptide, Ac-[Pen]*-N-T-[W(7-Me)]-[Lys(Ac)]-[Pen]*-Phe[4-(2-aminoethoxy)]-[2-Nal]-[THP]-E-N-[3-Pal]-Sarc-NH2 (*[Pen]-[Pen]* formdisulfidebond)]
[1]
  PASI 100% Improvement, subjects: 2 (40.0%)
  PASI ≥75% Improvement, subjects: 4 (80.0%)
  PASI ≥90% Improvement, subjects: 3 (60.0%)
[2]
  PASI 100% Improvement, subjects: 2 (40.0%)
  PASI ≥75% Improvement, subjects: 5 (100.0%)
  PASI ≥90% Improvement, subjects: 3 (60.0%)
[3]
  PASI 100% Improvement, subjects: 2 (40.0%)
  PASI ≥75% Improvement, subjects: 4 (80.0%)
  PASI ≥90% Improvement, subjects: 4 (80.0%)
100 mg QD, Week 4
  Subjects achieving PASI 75: 16.3%
100 mg QD, Week 16
  PASI 75 treatment difference vs placebo: 55.8%
  PASI 90 treatment difference vs placebo: 44.2% (28.6%,
  PASI 100 treatment difference vs placebo: 23.3% (10.7%,
  Subjects achieving PASI 90: 20 (46.5%)
  Subjects achieving PASI 100: 10 (23.3%)
100 mg QD, Week 16, N=43
  PASI 75, %: 65.1%
  PASI 90, %: 46.5%
  PASI 100, %: 23.3%
[4]
  PASI 100% Improvement, n subjects: 0
  PASI ≥75% Improvement, % subjects: (100.0%)
  PASI ≥75% Improvement, n subjects: 2
  PASI ≥90% Improvement, % subjects: (50.0%)
  PASI ≥90% Improvement, n subjects: 1
[5]
  PASI 100% Improvement, % subjects: (50.0%)
  PASI 100% Improvement, n subjects: 1
  PASI ≥75% Improvement, % subjects: (100.0%)
  PASI ≥75% Improvement, n subjects: 2
  PASI ≥90% Improvement, % subjects: (50.0%)
  PASI ≥90% Improvement, n subjects: 1
[6]
  PASI 100% Improvement, n subjects: 0
  PASI ≥75% Improvement, % subjects: (50.0%)
  PASI ≥75% Improvement, n subjects: 1
  PASI ≥90% Improvement, % subjects: (50.0%)
  PASI ≥90% Improvement, n subjects: 1
[7]
  PASI 100% Improvement, n subjects: 0
  PASI ≥75% Improvement, n subjects: 1
  PASI ≥90% Improvement, % subjects: (50.0%)
  PASI ≥90% Improvement, n subjects: 1
[8]
  PASI 100% Improvement, subjects: 2 (40.0%)
  PASI ≥75% Improvement, subjects: 3 (60.0%)
  PASI ≥90% Improvement, subjects: 3 (60.0%)
[9]
  PASI 100% Improvement, subjects: 0
  PASI ≥75% Improvement, subjects: 3 (60.0%)
  PASI ≥90% Improvement, subjects: 3 (60.0%)
[10]
  PASI 100% Improvement, subjects: 1 (20.0%)
  PASI ≥75% Improvement, subjects: 3 (60.0%)
  PASI ≥90% Improvement, subjects: 2 (40.0%)
[11]
  PASI 100% Improvement, subjects: 1 (20.0%)
  PASI ≥75% Improvement, subjects: 3 (60.0%)
  PASI ≥90% Improvement, subjects: 2 (40.0%)
[12]
  PASI 100% Improvement, n subjects: 0
  PASI ≥75% Improvement, n subjects: 4
  PASI ≥90% Improvement, % subjects: (30.0%)
  PASI ≥90% Improvement, n subjects: 3
[13]
  PASI 100% Improvement, % subjects: (18.2%)
  PASI 100% Improvement, n subjects: 2
  PASI ≥75% Improvement, n subjects: 10
  PASI ≥90% Improvement, % subjects: (63.6%)
  PASI ≥90% Improvement, n subjects: 7
[14]
  PASI 100% Improvement, % subjects: (10.0%)
  PASI 100% Improvement, n subjects: 1
  PASI ≥75% Improvement, n subjects: 7
  PASI ≥90% Improvement, % subjects: (60.0%)
  PASI ≥90% Improvement, n subjects: 6
[15]
  PASI 100% Improvement, % subjects: (36.4%)
  PASI 100% Improvement, n subjects: 4
  PASI ≥75% Improvement, n subjects: 8
  PASI ≥90% Improvement, % subjects: (63.6%)
  PASI ≥90% Improvement, n subjects: 7
[16]
  PASI 100% Improvement, subjects: 7 (26.9%)
  PASI ≥75% Improvement, subjects: 13 (50.0%)
  PASI ≥90% Improvement, subjects: 11 (42.3%)
[17]
  PASI 100% Improvement, subjects: 4 (15.4%)
  PASI ≥75% Improvement, subjects: 12 (46.2%)
  PASI ≥90% Improvement, subjects: 7 (26.9%)
